Values quoted from earlier work as cited in patent US7364752B1, “Solid dispersion pharamaceutical formulations” (Abbott Laboratories, priority 1999, dated 2008).

Details: PEG solid dispersion formulation

bioavailability: unable to improve the bioavailability
Structure (SMILES): O=C1N(Cc2ccc(CO)cc2)[C@H](Cc2ccccc2)[C@H](O)[C@@H](O)[C@@H](Cc2ccccc2)N1Cc1ccc(CO)cc1 [DMP 323]
